Values quoted from earlier work in article PMC6915728 (Nature Communications, 2019).
Read-outs that look alike come from different tables or passages of the source. Ends that are not written are not given here.

System: bacterial species in which the gene showed activity
Settings: cited from earlier work
[1] = Staphylococcus aureus, SalmonellaTyphimurium, ref http://ac.els-cdn.com/S0022202X15369608/1-s2.0-S0022202X15369608-main.pdf?_tid=6fa51c80-693e-11e6-b18c-00000aacb362&acdnat=1471962936_8118358d97a056d7d78b5e8b4ca8d03b, https://www.sciencedirect.com/science/article/pii/S0928824401002917
[2] = Staphylococcus epidermidis, ref http://jb.asm.org/content/178/2/531.full.pdf, https://www.ncbi.nlm.nih.gov/pmc/articles/PMC4239024/
[3] = Staphylococcus aureus, ref https://www.ncbi.nlm.nih.gov/pubmed/14707093
[4] = Klebsiella pneumoniae, ref http://iai.asm.org/content/72/12/7107.full.pdf+html
[5] = Salmonella enterica serovar Typhimurium, ref http://www.microbiologyresearch.org/docserver/fulltext/micro/154/2/666.pdf?expires=1487718158&id=id&accname=guest&checksum=D8B884D02A8B2A8619216A48E0826377
[6] = Salmonella typhimurium, Escherichia coli, ref https://www.ncbi.nlm.nih.gov/pmc/articles/PMC3037666/, https://www.ncbi.nlm.nih.gov/pmc/articles/PMC4808223/
[7] = Salmonella typhimurium, ref https://www.ncbi.nlm.nih.gov/pmc/articles/PMC3037666/
[8] = Staphylococcus aureus, Staphylococcus xylosus, ref http://www.jbc.org/content/274/13/8405.full.pdf
[9] = Neisseria meningitidis, Neisseria gonorrhoeae, ref http://www.ncbi.nlm.nih.gov/pmc/articles/PMC1196002/
[10] = Neisseria meningitidis, ref https://www.ncbi.nlm.nih.gov/pmc/articles/PMC1196002/
[11] = Klebsiella pneumoniae, ref http://www.ncbi.nlm.nih.gov/pmc/articles/PMC2798511/
[12] = Salmonella typhimurium, Escherichia coli, ref https://www.ncbi.nlm.nih.gov/pmc/articles/PMC3037666/, https://www.ncbi.nlm.nih.gov/pmc/articles/PMC3837802/pdf/zam7770.pdf
[13] = Staphylococcus aureus, ref http://onlinelibrary.wiley.com/doi/10.1111/j.1365-2958.2007.05986.x/epdf

For “human beta-defensin 3 (GIINTLQKYYCRVRGGRCAVLSCLPKEEQIGKCSTRGRKCCRRKK; ends and bridges not checked; cysteine pairing not given here; UniProt P81534 23-67, looked up)”, the “Gene that modulates bacterial susceptibility to the AMP” value [1] is listed as “hemB”.

For “Epidermin (IASKFICTPGCAKTGSFNSYCC; also: lantibiotic, thioether rings, places not given here; UniProt P08136 31-52, looked up)”, the “Gene that modulates bacterial susceptibility to the AMP” value [2] is listed as “epiE, epiF, epiG”.

For Human alpha-defensin-1, the “Gene that modulates bacterial susceptibility to the AMP” value [3] is listed as “sak”.

For GIGKFLHSAKKFGKAFVGEIMNS [Magainin 2], the “Gene that modulates bacterial susceptibility to the AMP” value (Salmonella enterica serovar Typhimurium, ref http://onlinelibrary.wiley.com/doi/10.1111/j.1365-2958.2004.04107.x/full) is given as “yqjA”, the “Gene that modulates bacterial susceptibility to the AMP” value (Salmonella enterica serovar Typhimurium, ref http://www.jbc.org/content/279/37/38618.long, https://onlinelibrary.wiley.com/doi/epdf/10.1111/j.1365-2958.2005.04553.x) is given as “slyA” and the “Gene that modulates bacterial susceptibility to the AMP” value (Salmonella enterica serovar Typhimurium, ref http://www.jbc.org/content/279/37/38618.long) is given as “ugtL”.

In the case of Human neutrophil peptide-1, the “Gene that modulates bacterial susceptibility to the AMP” value [4] is listed as “cps”.

For Nisin, the “Gene that modulates bacterial susceptibility to the AMP” value (Bacillus subtilis, gene psdA (yvcR), […]) is given as “psdA (yvcR)”, the “Gene that modulates bacterial susceptibility to the AMP” value (Bacillus subtilis, gene psdB (yvcS), […]) is given as “psdB (yvcS)” and the “Gene that modulates bacterial susceptibility to the AMP” value (Lactococcus lactis, genes nisE, nisF, nisG, […]) is given as “nisE, nisF, nisG”. For the same compound, the “Gene that modulates bacterial susceptibility to the AMP” value (Lactococcus lactis, genes ysaB, ysaC, […]) was “ysaB, ysaC”, the “Gene that modulates bacterial susceptibility to the AMP” value (Listeria monocytogenes, […]) was “anrA (lmo2114)” and the “Gene that modulates bacterial susceptibility to the AMP” value (Staphylococcus aureus, […]) was “braA,braB”.

For human beta-defensin-2, the “Gene that modulates bacterial susceptibility to the AMP” value [5] is given as “yejA”.

For mellitin, the “Gene that modulates bacterial susceptibility to the AMP” value [6] is given as “amiA, amiC” and the “Gene that modulates bacterial susceptibility to the AMP” value [7] is given as “tatA”.

In the case of Magainin II, the “Gene that modulates bacterial susceptibility to the AMP” value [8] is listed as “dltA (dlt operon)”.

In the case of protegrin, the “Gene that modulates bacterial susceptibility to the AMP” value (Salmonella typhimurium, Salmonella typhi, ref http://www.sciencedirect.com/science/article/pii/S009286740081750X) is given as “pagP”.

For colistin, the “Gene that modulates bacterial susceptibility to the AMP” value (Acinetobacter baumannii, ref http://aac.asm.org/content/54/12/4971.full.pdf+html) is listed as “lpxA” and the “Gene that modulates bacterial susceptibility to the AMP” value [1] is listed as “hemB”.

In the case of “gallidermin (IASKFLCTPGCAKTGSFNSYCC; also: lantibiotic, thioether rings, places not given here; UniProt P21838 31-52, looked up)”, the “Gene that modulates bacterial susceptibility to the AMP” value [8] is given as “dltA (dlt operon)” and the “Gene that modulates bacterial susceptibility to the AMP” value [2] is given as “epiE, epiF, epiG”.

In the case of “LL-37 (LLGDFFRKSKEKIGKEFKRIVQRIKDFLRNLVPRTES; Antibacterial peptide LL-37; UniProt P49913 134-170, looked up)”, the “Gene that modulates bacterial susceptibility to the AMP” value [9] is listed as “mtrC, mtrD, mtrE”, the “Gene that modulates bacterial susceptibility to the AMP” value [10] is listed as “lptA” and the “Gene that modulates bacterial susceptibility to the AMP” value [1] is listed as “hemB”. The “Gene that modulates bacterial susceptibility to the AMP” value (Staphylococcus epidermidis, ref http://onlinelibrary.wiley.com/doi/10.1046/j.1462-5822.2004.00367.x/epdf) was “icaA(ica operon)”.

In the case of human beta-defensin 2, the “Gene that modulates bacterial susceptibility to the AMP” value [11] is given as “acrB” and the “Gene that modulates bacterial susceptibility to the AMP” value [1] is given as “hemB”.

For Colistin, the “Gene that modulates bacterial susceptibility to the AMP” value (Acinetobacter baumannii, ref https://mbio.asm.org/content/4/3/e00021-13) is listed as “pmrB”, the “Gene that modulates bacterial susceptibility to the AMP” value (Escherichia coli, Klebsiella pneumoniae, Pseudomonas aeruginosa, Kluyvera ascorbata, ref http://www.ncbi.nlm.nih.gov/pubmed/26603172, http://ac.els-cdn.com/S1473309915005332/1-s2.0-S1473309915005332-main.pdf?_tid=16a7f944-6944-11e6-8a9d-00000aab0f02&acdnat=1471965364_7f481026d1a49114e23adef4a6b4d1a9, https://www.ncbi.nlm.nih.gov/pmc/articles/PMC5119035/) is listed as “mcr1” and the “Gene that modulates bacterial susceptibility to the AMP” value (Pseudomonas aeruginosa, ref https://onlinelibrary.wiley.com/doi/epdf/10.1111/j.1365-2958.2008.06152.x) is listed as “mexA, mexB”.

In the case of “Human alpha-defensin-2 (CYCRIPACIAGERRYGTCIYQGRLWAFCC; ends and bridges not checked; cysteine pairing not given here; UniProt P59665 66-94, looked up)”, the “Gene that modulates bacterial susceptibility to the AMP” value [3] is given as “sak”.

For Human alfa-defensin1, the “Gene that modulates bacterial susceptibility to the AMP” value [8] is given as “dltA (dlt operon)”.

For CC[C@H](C)[C@H](NC(=O)CN)C(=O)NCC(=O)N[C@@H](C)C(=O)N[C@H](C(=O)N[C@@H](CC(C)C)C(=O)N[C@@H](CCCCN)C(=O)N[C@H](C(=O)N[C@@H](CC(C)C)C(=O)N[C@H](C(=O)N[C@H](C(=O)NCC(=O)N[C@@H](CC(C)C)C(=O)N1CCC[C@H]1C(=O)N[C@@H](C)C(=O)N[C@@H](CC(C)C)C(=O)N[C@H](C(=O)N[C@@H](CO)C(=O)N[C@@H](Cc1c[nH]c2ccccc12)C(=O)N[C@H](C(=O)N[C@@H](CCCCN)C(=O)N[C@@H](CCCNC(=N)N)C(=O)N[C@@H](CCCCN)C(=O)N[C@@H](CCCNC(=N)N)C(=O)N[C@@H](CCC(N)=O)C(=O)N[C@@H](CCC(N)=O)C(N)=O)[C@@H](C)CC)[C@@H](C)CC)[C@@H](C)O)[C@@H](C)O)C(C)C)C(C)C [melittin], the “Gene that modulates bacterial susceptibility to the AMP” value [5] is listed as “yejA” and the “Gene that modulates bacterial susceptibility to the AMP” value [12] is listed as “cpxA (CpxA/CpxR)”.

For “human beta-defensin-1 (DHYNCVSSGGQCLYSACPIFTKIQGTCYRGKAKCCK; ends and bridges not checked; cysteine pairing not given here; UniProt P60022 33-68, looked up)”, the “Gene that modulates bacterial susceptibility to the AMP” value (Burkholderia cenocepacia, ref http://www.microbiologyresearch.org/docserver/fulltext/micro/155/9/2818.pdf?expires=1468919235&id=id&accname=guest&checksum=2CEA64BA8195145BE72C98BB20076628) is listed as “zmpB”, the “Gene that modulates bacterial susceptibility to the AMP” value [4] is listed as “cps” and the “Gene that modulates bacterial susceptibility to the AMP” value (Proteus mirabilis, ref http://www.ncbi.nlm.nih.gov/pmc/articles/PMC517467/pdf/0713-04.pdf) is listed as “zapA”.

In the case of “human beta-defensin 1 (DHYNCVSSGGQCLYSACPIFTKIQGTCYRGKAKCCK; ends and bridges not checked; cysteine pairing not given here; UniProt P60022 33-68, looked up)”, the “Gene that modulates bacterial susceptibility to the AMP” value [11] is given as “acrB”.

For Human alfa-defensin3, the “Gene that modulates bacterial susceptibility to the AMP” value [8] is listed as “dltA (dlt operon)”.

For lactoferricin B, the “Gene that modulates bacterial susceptibility to the AMP” value [1] is given as “hemB”.

In the case of human neutrophil peptide-1, the “Gene that modulates bacterial susceptibility to the AMP” value [11] is given as “acrB” and the “Gene that modulates bacterial susceptibility to the AMP” value [6] is given as “amiA, amiC”.

In the case of magainin 2, the “Gene that modulates bacterial susceptibility to the AMP” value [12] is listed as “cpxA (CpxA/CpxR)”, the “Gene that modulates bacterial susceptibility to the AMP” value [6] is listed as “amiA, amiC” and the “Gene that modulates bacterial susceptibility to the AMP” value [7] is listed as “tatA”.

For nisin, the “Gene that modulates bacterial susceptibility to the AMP” value [8] is listed as “dltA (dlt operon)” and the “Gene that modulates bacterial susceptibility to the AMP” value [13] is listed as “apsS”.

In the case of lactoferrin, the “Gene that modulates bacterial susceptibility to the AMP” value [4] is listed as “cps”.

For “beta-defensin-1 (DHYNCVSSGGQCLYSACPIFTKIQGTCYRGKAKCCK; ends and bridges not checked; cysteine pairing not given here; UniProt P60022 33-68, looked up)”, the “Gene that modulates bacterial susceptibility to the AMP” value is given as “pla”.

For polymyxin E, the “Gene that modulates bacterial susceptibility to the AMP” value (Bordetella pertussis, ref http://www.ncbi.nlm.nih.gov/pmc/articles/PMC4136009/) is given as “lgmA, IgmB, IgmC”.

For “human defensin (human beta-defensin)-1 (DHYNCVSSGGQCLYSACPIFTKIQGTCYRGKAKCCK; ends and bridges not checked; cysteine pairing not given here; UniProt P60022 33-68, looked up)”, the “Gene that modulates bacterial susceptibility to the AMP” value [5] is listed as “yejA”.

In the case of “protegrin-1 (RGGRLCYCRRRFCVCVGR; ends and bridges not checked; cysteine pairing not given here; UniProt P32194 131-148, looked up)”, the “Gene that modulates bacterial susceptibility to the AMP” value [9] is listed as “mtrC, mtrD, mtrE”, the “Gene that modulates bacterial susceptibility to the AMP” value [10] is listed as “lptA” and the “Gene that modulates bacterial susceptibility to the AMP” value is listed as “pgtE”.

In the case of “dermcidin (SSLLEKGLDGAKKAVGGLGKLGKDAVEDLESVGKGAVHDVKDVLDSV; DCD-1; UniProt P81605 63-109, looked up)”, the “Gene that modulates bacterial susceptibility to the AMP” value [13] is listed as “apsS”.

For CRAMP, the “Gene that modulates bacterial susceptibility to the AMP” value is listed as “pgtE”.

In the case of “Human beta-defensin3 (GIINTLQKYYCRVRGGRCAVLSCLPKEEQIGKCSTRGRKCCRRKK; ends and bridges not checked; cysteine pairing not given here; UniProt P81534 23-67, looked up)”, the “Gene that modulates bacterial susceptibility to the AMP” value [13] is given as “apsS”.

For bacitracin, the “Gene that modulates bacterial susceptibility to the AMP” value (Listeria monocytogenes, ref https://www.ncbi.nlm.nih.gov/pmc/articles/PMC2944581/) is given as “anrA (lmo2114)” and the “Gene that modulates bacterial susceptibility to the AMP” value (Staphylococcus aureus, ref https://www.ncbi.nlm.nih.gov/pmc/articles/PMC3718698/) is given as “braA,braB”.
